# Laboratory results published in EP3851097A1, “CONTROLLED RELEASE FORMULATIONS” (Universidad De Zaragoza, priority 2020, dated 2021).
# Experiment: Ocular tissue pharmacokinetics of dexamethasone after intravitreal injection (HPLC)
# Conditions: vitreous humor
# Method: Previously, a paracentesis in the anterior chamber was performed using a 30-gauge hypodermic needle with removal of aqueous humor, to avoid an intraocular pressure elevation.
# Thirty female NZ albino rabbits were used for this study: fifteen for SCS group (50 µL-DEX/LAP suspension) and other fifteen for IVT group (100 µL).
# After administration of DEX/LAP suspension (10 mg/mL, 1:10 w/w), the rabbits were sacrificed for sampling eye tissues and subsequent ocular PK studies. Three animals were used for each sampling time point at 1, 7, 28, 84 and 168 days. A rapid intravenous injection of sodium pentobarbital (30 mg/kg) through the ear vein was performed and immediately after euthanasia, ocular tissues were collected. Following eye enucleation, the globes were snap-frozen (-40°C) and specimens were obtained by eye dissection (vitreous, lens, sclera and chorio-retina compound). DEX concentrations in ocular tissues were determined using a simple and easily accessible method by HPLC-Mss, according to the methodology described by our group in a previous study.
# The determination of DEX was carried out by HPLC-Mss method in a Waters 2695 system equipped with a Phenomenex Kinetex C18 column (75 mm × 4.6 mm × 2.6 µm) coupled to a Waters 2995 PDA detector. The mobile phase was acetonitrile/water (35:65 v/v) pumped at a flow rate of 0.2 mL/min at 35°C. Detection at 250 nm was used. The amount of DEX was calculated by a seven point calibration curve against 6-α-methylprednisolone as internal standard. Aliquots of the extraction medium (200 µL) were mixed with acetonitrile (2 mL) and 100 µL of a standard solution (20 ppm in acetonitrile). The solution was then vortexed for 1 min and sonicated for 5 min to ensure the complete mixing, and finally centrifuged at 3000 rpm for 5 min. The supernatant was collected and evaporated under vacuum, and then dissolved in 200 µL of acetonitrile, filtered through a 0.22 µm PTFE syringe filter and analyzed.
# PK data were analyzed for the best fit and were consequently modelled according to compartmental models using Microsoft Excel's "PKSolver Add-in" (Albuquerque, NM, USA), in which equations describing concentration as a function of time are used. The following PK parameters were obtained: peak concentration (Cmax), time to peak concentration (Tmax), elimination half-life (T½).
# To describe the time course-concentration after administration the following equation was used: Ctissue = C0 ∗e^(−Ke t) [formula] where C is the tissue concentration, C0 is the concentration at time to, Ke is the elimination rate constant which is derived from the elimination half-life of the drug (Ke= 0.693/T1/2).
# [1] = 100 µL intravitreal administration
smiles,measurement,setting,value
"C[C@@H]1C[C@H]2[C@@H]3CCC4=CC(=O)C=C[C@]4(C)[C@@]3(F)[C@@H](O)C[C@]2(C)[C@@]1(O)C(=O)CO [DEX solution, Dexamethasone]",AUC0-∞,[1],317.17 ng·days/g
same,C0,[1],1737.71 ng/g
same,Cl,[1],315.29 g/day
same,Ke,[1],5.48 day⁻¹
same,clearance (CL),intravitreal injection,315.29 g/day
